Source: patent publication US10561665B2, “Treatment of autism” (priority 2014, dated 2020)
Where two headings read alike, the source gives them in different places.

Legend:
cholinesterase [1] = assay: cholinesterase inhibition (IC50); type: biochemical
CaCo-2 cells = assay: in vitro permeability of a layer of CaCo-2 cells; type: in vitro ADME, human; conditions: predicted from CaCo-2 permeability
[2] = liver microsome stability; type: in vitro ADME, Mouse; conditions: for half-life at 5 μM: mouse, liver microsomes
Mecp2 mice [3] = assay: locomotor activity (photobeam) in Mecp2 mutant mice and controls; type: in vivo; conditions: 0.1 to 20 mg/kg
Procedure: Locomotor activity was monitored using methods described previously (Shaevitz et al. 2013 Genes Brain Behav, 12(7): 732-40. doi: 10.1111/gbb.12070). Mecp2 mutant males (between 1 and 3 months old) and females (between 3 and 6 months old) and age-matched controls were monitored for one-hour prior to and 12 hours after drug (or vehicle: 20% DMSO in saline) administration (one set of mice received IP injections and one set of mice received oral gavage) in doses that ranged from 0.1-20 mg/kg). Activity was measured across the 12-h dark cycle using a photobeam activity system (San Diego instruments, San Diego, Calif., USA). Mice were placed individually into a cage (47×25×21 cm) inside a rectangular arena equipped with a 3×8 array of photobeams. The average number of ambulatory (two adjacent) and fine (repeated single) beam breaks per hour over the 12 h was compared. [N=2 mice/group at each dose and each administration route; for the vehicle controls, N=6 WT/group; N=6 Mecp2/group]. Data were analyzed using repeated measures analysis of variance.

Mecp2 mice [4] = assay: respiratory function (plethysmograph) in Mecp2 mutant mice and controls; type: in vivo; conditions: IP or gavage, 0.1 to 20 mg/kg
Procedure: Respiratory function was monitored in a plethysmograph (EMKA Technologies) for 30 minutes prior to and 1 hour after drug administration (one set of mice received IP injections and one set of mice received oral gavage). [N=2 mice/group at each dose and each administration route; for the vehicle controls, N=6 WT/group; N=6 Mecp2/group]. Data were analyzed using repeated measures analysis of variance.

female Mecp2 mice = assay: novel object recognition (NOR) task in female Mecp2 mice; type: in vivo; conditions: Mecp2 females
Procedure: Cognitive function was assessed using the novel object recognition (NOR) task using methods previously described (Schaevitz et al. 2013). […] Novel object memory was assessed during three sessions. This task relies on the innate tendency of a mouse to explore unfamiliar objects vs. familiar objects. Testing was performed in an open-field arena. Twenty-four hours prior to training, mice were habituated to the arena for 10 min. Ninety minutes before training, the mice were administered drug or vehicle (0.1, 0.5, 1.0, 2.5 and 5.0 mg/kg IP). During training, mice were given 10 min to explore two identical Lego objects (A+A). Short- and long-term object memory were assessed in two subsequent sessions ([…]) during which mice were given 10 min to explore the familiar (A) or a novel (B or C) object. The duration of exploration (defined as the mouse's snout or forelimbs physically touching or approaching within 1 cm of an object) of familiar and novel objects was measured. The amount of time spent exploring the novel object over the total time exploring both novel and familiar objects in each session was used to measure object memory. [N=6/dose of 0.1, 0.5 and 1.0; N=1/dose of 2.5 and 5.0 mg/kg; for vehicle N=6 WT and N=6 Mecp2 mice.]
For the novel objection recognition task data, we created a matrix of all wildtype and Mecp2 females who were administered the vehicle and a second matrix comparing Mecp2 females with and without the drug (all doses combined).

cholinesterase [5] = conditions: cholinesterase inhibitor (Han et al 1991); cited from earlier work
α7 nicotinic receptors = target: T1, α7 nicotinic receptors (Rattus norvegicus, UniProt Q05941); conditions: cited from earlier work
T1 construct: Primary cultured rat neurons can be depolarized by the application of 1.5 mM choline; endogenous in cells; host or cells: primary cultured rat neurons
T1 sequence (Q05941 23-502): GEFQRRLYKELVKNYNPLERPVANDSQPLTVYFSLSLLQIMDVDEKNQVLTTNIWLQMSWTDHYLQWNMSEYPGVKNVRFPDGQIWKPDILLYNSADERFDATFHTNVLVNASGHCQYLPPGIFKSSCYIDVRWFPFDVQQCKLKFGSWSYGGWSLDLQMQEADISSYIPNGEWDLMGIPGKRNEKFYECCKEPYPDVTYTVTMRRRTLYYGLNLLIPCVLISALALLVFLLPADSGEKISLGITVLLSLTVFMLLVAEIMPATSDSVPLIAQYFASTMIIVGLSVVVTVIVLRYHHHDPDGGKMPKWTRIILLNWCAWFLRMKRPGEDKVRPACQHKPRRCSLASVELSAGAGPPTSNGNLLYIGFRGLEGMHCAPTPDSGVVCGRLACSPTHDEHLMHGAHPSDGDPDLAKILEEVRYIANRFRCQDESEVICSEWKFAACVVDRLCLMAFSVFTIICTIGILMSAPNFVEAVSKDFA

mice = conditions: cited from earlier work; for adverse effects at very high doses: 50-100 mg/kg
[6] = test system: mice with lesions of the nucleus basalis magnocellularis; conditions: cited from earlier work; for increase of time remaining in the lighted compartment versus saline: nBM lesioned mice, compound given during training, optimal performance; for best dose for memory enhancement: passive avoidance, 24 hour retention
[7] = stability in mouse plasma
[8] = human patients; cited from earlier work
ASD patients = conditions: case reports, open-label and poorly documented studies; cited from earlier work
[9] = test system: patient with 15q13.3 deletion syndrome; conditions: one patient; cited from earlier work
[10] = test system: mild cognitive impairment population; conditions: patients with mild cognitive impairment; cited from earlier work
[11] = 5.0 μM, Mouse, read-out: NADPH-dependent T1/2 (half-life)
[12] = 5.0 μM, Mouse, read-out: NADPH-free T1/2 (half-life)
[13] = all doses combined (0.1-5.0 mg/kg IP)

Question: Which “cholinesterase inhibitory potency relative to galantamine” value (cholinesterase [1]) does the source give for `CCCCNC(=O)O[C@H]1C=C[C@@]23CCN(C)Cc4ccc(OC)c(c42)O[C@H]3C1` [Galantamine n-butylcarbamate, n-butylcarbamate derivative of galantamine] here?
Answer: about 36%

Question: And the predicted oral bioavailability (CaCo-2 cells)?
Answer: 80%

Question: And the “NADPH-dependent CLint (microsomal intrinsic clearance)” value ([2]; 5.0 μM, Mouse)?
Answer: 23.5 μl min^−1 mg−^1

Question: And the “NADPH-free CLint (microsomal intrinsic clearance)” value ([2]; 5.0 μM, Mouse)?
Answer: 0.0 μl min^−1 mg−^1

Question: And the half-life at 5 μM [2, 11]?
Answer: 98.2 min

Question: And the half-life at 5 μM [2, 12]?
Answer: > 60 min

Question: What about the half-life at 5 μM ([2]; in-vitro preparation of liver microsomes, read-out: half-life in liver microsomes) of the same compound?
Answer: > 60 min

Question: And the tolerability (Mecp2 mice [3]; Mecp2 mice of both sexes and controls, locomotor and respiratory functions)?
Answer: safe and well tolerated

Question: What about the “effect on locomotor activity” value (Mecp2 mice [3]; IP or gavage, Mecp2 mice of either sex) of the same compound?
Answer: did not impair locomotor activity

Question: What about the “effect on respiratory activity” value (Mecp2 mice [4]) of the same compound?
Answer: did not affect respiratory activity

Question: And the “NOR task learning versus vehicle” value (female Mecp2 mice; Chi square p=0.0321)?
Answer: learned the NOR task significantly better than vehicle-injected Mecp2 mice

Question: And the “share of mice with NOR scores = or below 0.5” value (female Mecp2 mice; [13])?
Answer: 65%

Question: What about the “share of mice with NOR scores above 0.5” value (female Mecp2 mice; [13]) of the same compound?
Answer: 35%

Question: What about the IC50 (cholinesterase [5]) of the same compound?
Answer: 1090 nM

Question: What about the “effect of FK-1 antibody on the enhancement” value (α7 nicotinic receptors; antibody to the galantamine recognition site on nicotinic receptors) of the same compound?
Answer: blocked by the antibody to the galantamine recognition site on nicotinic receptors, FK-1

Question: And the “adverse effects at very high doses” value (mice; listed as n-butylcarbamate)?
Answer: wobbly and off-balance with rapid heart rate still present at 4 hours, but were recovered at 24 hours

Question: And the “adverse effects at very high doses” value (mice)?
Answer: affects cardiac and motor functions at very high doses

Question: And the “lethality (dose without lethality)” value (mice)?
Answer: > 100 mg/kg

Question: What about the “increase of time remaining in the lighted compartment versus saline” value [6] of the same compound?
Answer: about 100 seconds

Question: And the “best dose for memory enhancement” value [6]?
Answer: 0.5 mg/kg

Question: What about the “stability in mouse plasma” value [7] of the same compound?
Answer: stable for greater than two hours

Question: And the “concentration at two hours compared with galantamine” value ([7]; two hours)?
Answer: slightly lower than those of galantamine

Question: With `COc1ccc2c3c1O[C@H]1C[C@@H](O)C=C[C@@]31CCN(C)C2` [Galantamine] as the compound, how does the “enhancement of the depolarization caused by choline” value (α7 nicotinic receptors; 1 μM compound, 1.5 mM choline, primary cultured rat neurons) read?
Answer: 20.6±4.2%

Question: What about the plasma half-life [8] of the same compound?
Answer: about 7 hours

Question: And the “increase of time remaining in the lighted compartment versus saline” value [6]?
Answer: about 125 seconds

Question: What about the “best dose for memory enhancement” value [6] of the same compound?
Answer: 3 mg/kg

Question: And the “clinical outcome in ASD” value (ASD patients)?
Answer: some beneficial results

Question: And the episodes of rage [9]?
Answer: striking decrease in episodes of rage

Question: And the “mortality in mild cognitive impairment” value [10]?
Answer: increased mortality

Question: With `COc1ccc2c3c1O[C@H]1C[C@@H](O)C=C[C@@]31CCN(C)C2` [Galanthamine HBr, reference compound] as the compound, how does the “NADPH-dependent CLint (microsomal intrinsic clearance)” value ([2]; 5.0 μM, Mouse) read?
Answer: 0.0 μl min^−1 mg−^1

Question: What about the “NADPH-free CLint (microsomal intrinsic clearance)” value ([2]; 5.0 μM, Mouse) of the same compound?
Answer: 0.0 μl min^−1 mg−^1

Question: And the half-life at 5 μM [2, 11]?
Answer: > 60 min

Question: What about the half-life at 5 μM [2, 12] of the same compound?
Answer: > 60 min
